Results taken from US11980616B2, “Treating liver disease by selectively eliminating senescent cells” (Buck Institute for Research on Aging, priority 2014, dated 2024).

Legend:
[1] = tested on: senescent foreskin fibroblasts (Sen(IR)BJ); assay: Cell count survival assay, irradiation-induced senescent BJ; format: cell-based; details: 0, 2.5, 10 μM for 9 days
Experimental: Foreskin fibroblast cell lines HCA2 and BJ, lung fibroblast cell line IMR90, and mouse embryonic fibroblasts were seeded in six-well plates and induced to senesce with 10 Gy of ionizing radiation (IR) or a 24 hr treatment with doxorubicin (Doxo). Senescent phenotype was allowed to develop for at least 7 days, at which point a cell count was made to determine the baseline number of cells. Nutlin-3a treatment was then initiated for a period of at least 9 days. Media alone or media with drug as appropriate was refreshed at least every three days. At the end of the assay time period, cells are counted. Each condition was seeded in three plate wells and counted independently. Initial cell count serves as a control to determine the induction of senescence, as compared to the last day count without nutlin treatment. Initial non-senescent cell count serves as a proxy to determine Nutlin-3a toxicity.
Foreskin fibroblast cell lines HCA2 and BJ, lung fibroblast cell line IMR90, and mouse embryonic fibroblasts were exposed to 10 Gy of ionizing radiation (IR) to induce senescence. […] Percent survival was calculated as [cell count on day 9 of Nutlin-3a treatment/initial cell count on first day of Nutlin-3a treatment].

[2] = tested on: doxorubicin-induced senescent cells in p16-3MR mice; assay: Removal of doxorubicin-induced senescent cells in p16-3MR transgenic mice; format: in vivo, mouse
Experimental: The capability of Nutlin-3a to remove senescent cells in vivo was determined in transgenic p16-3MR mice (see, e.g., International Application Publication No. WO2013/090645). The transgenic mouse comprises a p16^Ink4a promoter operatively linked to a trimodal fusion protein for detecting senescent cells and for selective clearance of senescent cells in these transgenic mice, which is illustrated in FIG. 7. […] 3MR (tri-modality reporter) is a fusion protein containing functional domains of a synthetic Renilla luciferase (LUC), monomeric red fluorescence protein (mRFP), and truncated herpes simplex virus (HSV)-1 thymidine kinase (tTK), which allows killing by ganciclovir (GCV) (see, e.g., Ray et al., Cancer Res. 64:1323-30 (2004)). The 3MR cDNA was inserted in frame with p16 in exon 2, creating a fusion protein containing the first 62 amino acids of p16, but not a full-length wild-type p16 protein. […] The p16^Ink4a gene promoter (approximately 100 kilobase pairs) was introduced upstream of a nucleotide sequence encoding a trimodal reporter fusion protein. Alternatively, a truncated p16^Ink4a promoter may be used (see, e.g., Baker et al., Nature, supra; International Application Publication No. WO2012/177927; Wang et al., supra). Thus, the expression of 3MR is driven by the p16^Ink4a promoter in senescent cells only. The detectable markers, LUC and mRFP permitted detection of senescent cells by bioluminescence and fluorescence, respectively. […] Transgenic founder animals, which have a C57B16 background, were established and bred using known procedures for introducing transgenes into animals (see, e.g., Baker et al., Nature 479:232-36 (2011)).
Female C57/BL6 p16-3MR mice were randomized into doxorubicin+Nutlin-3a treated or doxorubicin only treated groups (see FIG. 6). Senescence was induced by intraperitoneal administration of doxorubicin at 10 mg/kg to the mice ten days prior to administration of Nutlin-3a (Day −10). Nutlin-3a (25 mg/kg) was administered intraperitoneally daily from day 10 to day 24 post-doxorubicin treatment (Group=9 mice). Control mice (doxorubicin treated) were injected with equal volumes of PBS (Group=3 mice). Luminescence imaging (Xenogen Imaging system) was performed at Day 0 (i.e., 10 days post-doxorubicin treatment) as a baseline for each mouse (100% intensity).
Luminescence imaging of the mice was performed on day 7, 14, 21, 28, and 35 following the initiation of Nutlin-3a treatment. Reduction of luminescence (L) was calculated as: L=(Imaging post-Nutlin-3a treatment)/(Baseline Imaging)[…]. If L is greater than or equal to 100%, the number of senescent cells was not reduced. If L is less than 100%, then the number of senescent cells was reduced. Every mouse was calculated independently, and background was subtracted from each sample.
Experiments were performed to determine the effect of Nutlin-3a treatment on expression of genes associated with senescence. Groups of female C57/BL6 p16-3MR were treated as described above. Three weeks after the end of Nutlin-3a treatment (day 35), the doxorubicin treated mice (control) (N=3) and doxorubicin+Nutlin-3a-treated mice (N=6) were sacrificed. […]
RNA was analyzed for mRNA levels of endogenous senescence markers (p21, p16^INK4a (p16), and p53) and SASP factors (mmp-3 and IL-6) relative to actin mRNA (control for cDNA quantity) using the Roche Universal Probe Library for real-time PCR assay. […]

[3] = tested on: non-senescent aortic endothelial (Non Sen Endo Aort) cells; assay: Cell count toxicity assay, non-senescent aortic endothelial cells; format: cell-based; details: 0, 2.5, 10 μM, 11 days
Experimental: Non-senescent aortic endothelial (Endo Aort) cells and pre-adipocytes (Pread) were also treated with varying concentrations (0, 2.5 μM, and 10 μM) of Nutlin-3a for a period of 11 days to assess Nutlin-3a toxicity, as described above. Cell counts were taken at the start at Day 0 (NS start) and at the end of Nutlin-3a treatment (NS 0). The difference between counts of cells not treated with Nutlin-3a on day 11 (NS 0) and cell counts from NS start reflects the cell growth over the indicated time period. […] Decrease in apparent survival between NS 0 and NS 2.5 and between NS 0 and NS 10 reflects a decrease in cell growth.

Compound: COc1ccc(C2=N[C@@H](c3ccc(Cl)cc3)[C@@H](c3ccc(Cl)cc3)N2C(=O)N2CCNC(=O)C2)c(OC(C)C)c1 [Nutlin-3a]
- Percent survival [1]: reduced cell survival
- Luminescence associated with doxorubicin-induced senescence (% of baseline) ([2]; 25 mg/kg i.p. daily day 10 to 24 post-doxorubicin): reduced luminescence
- Decrease in luminescence ([2]; 25 mg/kg i.p. daily, at day 14, day 28 and day 35): statistically significant decrease
- γH2AX positive cells (DNA damage) in lung sections ([2]; day 35, vs doxorubicin alone): reduced the number of cells with DNA damage
- mRNA of SASP factors (mmp-3, IL-6) and senescence markers (p21, p16, p53) ([2]; skin and fat, day 35, vs doxorubicin alone): reduced expression
- Senescence-associated β-gal intensity in fat biopsies ([2]; three weeks after treatment, vs doxorubicin alone): reduced senescence-associated β-gal intensity
- Proliferation (percent growth) [3]: reduces proliferation
- Toxicity (cell number vs starting level) [3]: non-toxic
